According to PMC5719405, “Sex-related pharmacokinetic differences and mechanisms of metapristone (RU486 metabolite)” (Scientific Reports, 2017):
Where two headings read alike, the source gives them in different places.

What was measured:
[1] = cited from earlier work
[2] = Metapristone metabolism in rat liver microsomes in the presence of specific CYP450 inhibitors; conditions: inhibitor 10 µM, metapristone 9 µM, male or female rat liver microsomes, 120 min
[3] = set-up: method as in PMID 22210121; conditions: cited from earlier work

| SMILES | effect of CYP inhibitor on metabolism rate of metapristone versus controls [2] | further results |
| --- | --- | --- |
| CCN(CC)CCCC(C)Nc1ccnc2cc(Cl)ccc12 (centres unmarked) [Chloroquine] |  | V d ([1]; literature example, no reference given): 15,000 L |
| CCCn1c(=O)c2[nH]c(C34CC5CC(CC3C5)C4)nc2n(CCC)c1=O [Rolofylline] |  | V d [1]: 239 L |
| CC[C@H]1OC(=O)[C@@](C)(F)C(=O)[C@H](C)[C@@H](O[C@@H]2O[C@H](C)C[C@H](N(C)C)[C@H]2O)[C@](C)(OC)C[C@@H](C)C(=O)[C@H](C)[C@H]2N(CCCCn3cc(-c4cccc(N)c4)nn3)C(=O)O[C@]12C [Solithromycin] |  | V d [1]: > 500 L |
| CC(=O)N1CCN(c2ccc(OCC3COC(Cn4ccnc4)(c4ccc(Cl)cc4Cl)O3)cc2)CC1 (centres unmarked) [ketoconazole] | significantly prevented metapristone from degradation |  |
| CC#C[C@]1(O)CC[C@H]2[C@@H]3CCC4=CC(=O)CCC4=C3[C@@H](c3ccc(N(C)C)cc3)C[C@@]21C [mifepristone] |  | plasma protein binding rate [3]: 90% |
| C=C[C@H]1C[N@@]2CC[C@H]1C[C@@H]2[C@@H](O)c1ccnc2ccc(OC)cc12 [quinidine] | No significant differences |  |
| Nc1ccc(S(=O)(=O)Nc2ccnn2-c2ccccc2)cc1 [sulfaphenazole] | No significant differences |  |
| O=c1cc(-c2ccccc2)oc2c1ccc1ccccc12 [α-naphthoflavone] | significantly prevented metapristone from degradation |  |
